# According to patent US9365562B2, “1,3 substituted azetidine PDE10 inhibitors” (Merck Sharp & Dohme Corp., priority 2011, dated 2016):
# Target: human PDE10A2 (Homo sapiens (Human), UniProt Q9Y233)
# Assay: PDE10 fluorescence polarization (IMAP FP) inhibition assay
# Type: biochemical
# Settings: apparent inhibition constant, FAM-labeled cAMP substrate 50 nM, room temperature
# Procedure: The activity of the compounds in accordance with the present invention as PDE10 inhibitors may be readily determined without undue experimentation using a fluorescence polarization (FP) methodology that is well known in the art (Huang, W., et al., J. Biomol Screen, 2002, 7: 215).
# In a typical experiment the PDE10 inhibitory activity of the compounds of the present invention was determined in accordance with the following experimental method. PDE10A2 was amplified from human fetal brain cDNA (Clontech, Mountain View, Calif.) using a forward primer corresponding to nucleotides 56-77 of human PDE10A2 (Accession No. AF127480, Genbank Identifier 4894716), containing a Kozak consensus sequence, and a reverse primer corresponding to nucleotides 2406-2413 of human PDE10A2 (Accession No. AF127480, Genbank Identifier 4894716). Amplification with Easy-A polymerase (Stratagene, La Jolla, Calif.) was 95° C. for 2 minutes followed by thirty three cycles of 95° C. for 40 seconds, 55° C. for 30 seconds, and 72° C. for 2 minutes 48 seconds. Final extension was 72° C. for 7 minutes. The PCR product was TA cloned into pcDNA3.2-TOPO (Invitrogen, Carlsbad, Calif.) according to standard protocol. AD293 cells with 70-80% confluency were transiently transfected with human PDE10A2/pcDNA3.2-TOPO using Lipofectamine 2000 according to manufacturer specifications (Invitrogen, Carlsbad, Calif.). Cells were harvested 48 hours post-transfection and lysed by sonication (setting 3, 10×5 sec pulses) in a buffer containing 20 mM HEPES, 1 mM EDTA and protease inhibitor cocktail (Roche). Lysate was collected by centrifugation at 75,000×g for 20 minutes. Supernatant containing the cytoplasmic fraction was used for evaluation of PDE10A2 activity. The fluorescence polarization assay for cyclic nucleotide phosphodiesterases was performed using an IMAP® FP kit supplied by Molecular Devices, Sunnyvale, Calif. (product # R8139). IMAP® technology has been applied previously to phosphodiesterase assays (Huang, W., et al., J. Biomol Screen, 2002, 7: 215). Assays were performed at room temperature in 384-well microtiter plates with an incubation volume of 20.2 μL. Solutions of test compounds were prepared in DMSO and serially diluted with DMSO to yield 8 μL of each of 10 solutions differing by 3-fold in concentration, at 32 serial dilutions per plate. 100% inhibition is determined using a known PDE10 inhibitor, which can be any compound that is present at 5,000 times its Ki value in the assay described as follows, such as papaverine (see Siuciak, et al. Neuropharmacology (2006) 51:386-396; Becker, et al. Behav Brain Res (2008) 186(2):155-60; Threlfell, et al., J Pharmacol Exp Ther (2009) 328(3):785-795), 2-{4-[pyridin-4-yl-1-(2,2,2-trifluoroethyl)-1H-pyrazol-3-yl]phenoxymethyl}quinoline succinic acid or 2-[4-(1-methyl-4-pyridin-4-yl-1H-pyrazol-3-yl)-phenoxymethyl]quinoline succinic acid (see Schmidt, et al. J Pharmacol Exp Ther (2008) 325:681-690; Threlfell, et al., J Pharmacol Exp Ther (2009) 328(3): 785-795). 0% of inhibition is determined by using DMSO (1% final concentrations). A Labcyte Echo 555 (Labcyte, Sunnyvale, Calif.) is used to dispense […] from each well of the titration plate to the 384 well assay plate. A solution of enzyme (1/7000 dilution from aliquots; sufficient to produce 20% substrate conversion) and a separate solution of FAM-labeled cAMP PDE from Molecular Devices (product # R7506), at a final concentration of 50 nM are made in the assay buffer (10 mM Tris HCl, pH 7.2, 10 mM MgCl2, 0.05% NaN3 0.01% Tween-20, and 1 mM DTT). The enzyme is added to the assay plates by the addition of 10 μL of enzyme solution to each well, shaken to mix and incubated at room temperature for 60 minutes. The substrate is then added to the assay plates by the addition of 10 μL of substrate solution to each well, shaken to mix, and incubated at room temperature for 60 minutes. […]
# Chain of human PDE10A2 (Q9Y233 267-1055): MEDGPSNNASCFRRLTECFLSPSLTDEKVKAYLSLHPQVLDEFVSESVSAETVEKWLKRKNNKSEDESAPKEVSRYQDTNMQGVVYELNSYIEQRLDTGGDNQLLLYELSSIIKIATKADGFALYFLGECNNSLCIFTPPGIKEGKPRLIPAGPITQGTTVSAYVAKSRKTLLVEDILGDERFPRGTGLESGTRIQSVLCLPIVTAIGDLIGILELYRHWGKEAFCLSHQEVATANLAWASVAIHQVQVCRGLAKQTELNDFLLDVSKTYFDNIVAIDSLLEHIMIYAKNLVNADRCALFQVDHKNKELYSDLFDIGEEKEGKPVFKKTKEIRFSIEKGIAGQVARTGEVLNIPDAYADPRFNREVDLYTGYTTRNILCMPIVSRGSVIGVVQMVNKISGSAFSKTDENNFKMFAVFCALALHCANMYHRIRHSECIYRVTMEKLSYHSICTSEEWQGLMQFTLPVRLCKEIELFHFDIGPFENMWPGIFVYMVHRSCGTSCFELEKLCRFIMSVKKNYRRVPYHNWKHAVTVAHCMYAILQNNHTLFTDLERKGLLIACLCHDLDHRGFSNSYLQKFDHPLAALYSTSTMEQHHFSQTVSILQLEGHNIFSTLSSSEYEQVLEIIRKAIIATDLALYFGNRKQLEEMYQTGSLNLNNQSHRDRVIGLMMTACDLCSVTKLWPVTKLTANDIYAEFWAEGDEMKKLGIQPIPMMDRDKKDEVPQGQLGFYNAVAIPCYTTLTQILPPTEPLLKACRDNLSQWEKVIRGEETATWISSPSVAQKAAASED
row,Compound,Ki
1,"Cc1nc(-c2ccccc2C(=O)O)cc(N2CC(c3nc4ccccc4n3C)C2)n1 [Example 93, 2-(2-methyl-6-(3-(1-methyl-1H-benzo[d]imidazol-2-yl)azetidin-1-yl)pyrimidin-4-yl)benzoic acid]",19 nM
2,"Cc1nc(N2CC(c3nc4ccccc4n3CC#N)C2)cc(-n2nc(C)nc2C)n1 [Example 115, 2-(2-(1-(6-(3,5-dimethyl-1H-1,2,4-triazol-1-yl)-2-methylpyrimidin-4-yl)azetidin-3-yl)-1H-benzo[d]imidazol-1-yl)acetonitrile]",14 nM
3,"Cc1nc(C2CC2)n(-c2cc(N3CC(c4nc5ccccc5n4C)C3)nc(C(F)(F)F)n2)n1 [Example 68, 2-(1-(6-(5-cyclopropyl-3-methyl-1H-1,2,4-triazol-1-yl)-2-(trifluoromethyl)pyrimidin-4-yl)azetidin-3-yl)-1-methyl-1H-benzo[d]imidazole]",1.4 nM
4,1-(1-{2-methoxy-6-3-(1-methyl-1H-benzimidazol-2-yl)azetidin-1-yl]pyrimidin-4-yl}-1H-pyrazol-4-yl)ethanol [Example 20],37 nM
5,"Cc1nc(C)n(-c2cc(N3CC(c4nc5ccccc5n4C)C3)nc(OCc3nccs3)n2)n1 [Example 72, 2-(((4-(3,5-dimethyl-1H-1,2,4-triazol-1-yl)-6-(3-(1-methyl-1H-benzo[d]imidazol-2-yl)azetidin-1-yl)pyrimidin-2-yl)oxy)methyl)thiazole]",0.28 nM
6,"Cc1ccc(-c2cc(N3CC(c4nc5ccccc5n4C)C3)nc(C(F)(F)F)n2)nc1 [Example 97, 1-methyl-2-(1-(6-(5-methylpyridin-2-yl)-2-(trifluoromethyl)pyrimidin-4-yl)azetidin-3-yl)-1H-benzo[d]imidazole]",0.9 nM
7,"Cc1nc(N2CC(c3nc4ccccc4n3C)C2)cc(-n2cccn2)n1 [Example 3, 1-methyl-2-(1-(2-methyl-6-(1H-pyrazol-1-yl)pyrimidin-4-yl)azetidin-3-yl)-1H-benzo[d]imidazole]",2.5 nM
8,"Cc1nc(N2CC(c3nc4cccc(C(F)(F)F)c4[nH]3)C2)cc(-n2nc(C)nc2C)n1 [Example 112, 2-(1-(6-(3,5-dimethyl-1H-1,2,4-triazol-1-yl)-2-methylpyrimidin-4-yl)azetidin-3-yl)-7-(trifluoromethyl)-1H-benzo[d]imidazole]",> 75 nM
9,"Cc1cnn(-c2cc(N3CC(c4nc5ccccc5n4C)C3)nc(C(F)(F)F)n2)n1 [Example 31, 1-methyl-2-(1-(6-(4-methyl-2H-1,2,3-triazol-2-yl)-2-(trifluoromethyl)pyrimidin-4-yl)azetidin-3-yl)-1H-benzo[d]imidazole]",1.2 nM
10,"Cc1nc(N2CC(c3nc4ccccc4n3C)C2)cc(-n2nc(C)nc2COc2ccccc2)n1 [Example 46, 1-methyl-2-(1-(2-methyl-6-(3-methyl-5-(phenoxymethyl)-1H-1,2,4-triazol-1-yl)pyrimidin-4-yl)azetidin-3-yl)-1H-benzo[d]imidazole]",1.2 nM
11,"Cc1nc(C)n(-c2cc(N3CC(c4nc5ccccc5n4C)C3)nc(N3CCCC3)n2)n1 [Example 78, 2-{1-[6-(3,5-dimethyl-1H-1,2,4-triazol-1-yl)-2-(pyrrolidin-1-yl)pyrimidin-4-yl]azetidin-3-yl}-1-methyl-1H-benzimidazole]",0.29 nM
12,"Cc1nc(C2CCOCC2)n(-c2cc(N3CC(c4nc5ccccc5n4C)C3)nc(C(F)(F)F)n2)n1 [Example 69, 1-methyl-2-(1-(6-(3-methyl-5-(tetrahydro-2H-pyran-4-yl)-1H-1,2,4-triazol-1-yl)-2-(trifluoromethyl)pyrimidin-4-yl)azetidin-3-yl)-1H-benzo[d]imidazole]",1.8 nM
13,"Cc1nc(C)n(-c2cc(N3CC(c4nc5ccccc5n4C)C3)nc(C3CC3)n2)n1 [Example 61, 2-{1-[2-cyclopropyl-6-(3,5-dimethyl-1H-1,2,4-triazol-1-yl)pyrimidin-4-yl]azetidin-3-yl}-1-methyl-1H-benzimidazole]",0.46 nM
14,"Cc1nc(N2CC(c3nc4ccccc4n3C)C2)cc(-n2nncc2C)n1 [Example 27, 1-methyl-2-(1-(2-methyl-6-(5-methyl-1H-1,2,3-triazol-1-yl)pyrimidin-4-yl)azetidin-3-yl)-1H-benzo[d]imidazole]",8.5 nM
15,"CCc1nc(C)nn1-c1cc(N2CC(c3nc4ccccc4n3C)C2)nc(C)n1 [Example 35, 2-(1-(6-(5-ethyl-3-methyl-1H-1,2,4-triazol-1-yl)-2-methylpyrimidin-4-yl)azetidin-3-yl)-1-methyl-1H-benzo[d]imidazole]",0.81 nM
16,"Cc1cnn(-c2cc(N3CC(c4nc5ccccc5n4C)C3)nc(C3CC3)n2)c1 [Example 6, 2-(1-(2-cyclopropyl-6-(4-methyl-1H-pyrazol-1-yl)pyrimidin-4-yl)azetidin-3-yl)-1-methyl-1H-benzo[d]imidazole]",0.53 nM
17,"Cc1nc(-c2cccnn2)cc(N2CC(c3nc4ccccc4n3C)C2)n1 [Example 106, 1-methyl-2-{1-[2-methyl-6-(pyridazin-3-yl)pyrimidin-4-yl]azetidin-3-yl}-1H-benzimidazole]",11 nM
18,"CCc1nc(C)nn1-c1cc(N2CC(c3nc4ccccc4n3C)C2)nc(OC)n1 [Example 64, 2-(1-(6-(5-ethyl-3-methyl-1H-1,2,4-triazol-1-yl)-2-methoxypyrimidin-4-yl)azetidin-3-yl)-1-methyl-1H-benzo[d]imidazole]",0.4 nM
19,"Cc1cnc(-c2nc(C)nn2-c2cc(N3CC(c4nc5ccccc5n4C)C3)nc(C)n2)cn1 [Example 53, 1-methyl-2-(1-(2-methyl-6-(3-methyl-5-(5-methylpyrazin-2-yl)-1H-1,2,4-triazol-1-yl)pyrimidin-4-yl)azetidin-3-yl)-1H-benzo[d]imidazole]",26 nM
20,"COCc1nc(C)nn1-c1cc(N2CC(c3nc4ccccc4n3C)C2)nc(C)n1 [Example 59, 2-(1-{6-[5-(methoxymethyl)-3-methyl-1H-1,2,4-triazol-1-yl]-2-methylpyrimidin-4-yl}azetidin-3-yl)-1-methyl-1H-benzimidazole]",1.5 nM
21,"COCCc1nc(C)nn1-c1cc(N2CC(c3nc4ccccc4n3C)C2)nc(C)n1 [Example 42, 2-(1-(6-(5-(2-methoxyethyl)-3-methyl-1H-1,2,4-triazol-1-yl)-2-methylpyrimidin-4-yl)azetidin-3-yl)-1-methyl-1H-benzo[d]imidazole]",1.9 nM
22,"Cc1nc(N2CC(c3nc4ccccc4n3CCC#N)C2)cc(-n2nc(C)nc2C)n1 [Example 119, 3-(2-(1-(6-(3,5-dimethyl-1H-1,2,4-triazol-1-yl)-2-methylpyrimidin-4-yl)azetidin-3-yl)-1H-benzo[d]imidazol-1-yl)propanenitrile]",5 nM
23,"COc1ccn(-c2cc(N3CC(c4nc5ccccc5n4C)C3)nc(C)n2)n1 [Example 12, 2-(1-(6-(3-methoxy-1H-pyrazol-1-yl)-2-methylpyrimidin-4-yl)azetidin-3-yl)-1-methyl-1H-benzo[d]imidazole]",4.7 nM
24,"COc1ncccc1-c1cc(N2CC(c3nc4ccccc4n3C)C2)nc(C)n1 [Example 82, 2-(1-(6-(2-methoxypyridin-3-yl)-2-methylpyrimidin-4-yl)azetidin-3-yl)-1-methyl-1H-benzo[d]imidazole]",27 nM
25,"Cc1nc(-c2ccc(C#N)cn2)cc(N2CC(c3nc4ccccc4n3C)C2)n1 [Example 103, 6-(2-methyl-6-(3-(1-methyl-1H-benzo[d]imidazol-2-yl)azetidin-1-yl)pyrimidin-4-yl)nicotinonitrile]",2.4 nM
